This assay addresses T1, SIRT1 (Homo sapiens, UniProt Q96EB6).
T1 sequence (Q96EB6 1-747): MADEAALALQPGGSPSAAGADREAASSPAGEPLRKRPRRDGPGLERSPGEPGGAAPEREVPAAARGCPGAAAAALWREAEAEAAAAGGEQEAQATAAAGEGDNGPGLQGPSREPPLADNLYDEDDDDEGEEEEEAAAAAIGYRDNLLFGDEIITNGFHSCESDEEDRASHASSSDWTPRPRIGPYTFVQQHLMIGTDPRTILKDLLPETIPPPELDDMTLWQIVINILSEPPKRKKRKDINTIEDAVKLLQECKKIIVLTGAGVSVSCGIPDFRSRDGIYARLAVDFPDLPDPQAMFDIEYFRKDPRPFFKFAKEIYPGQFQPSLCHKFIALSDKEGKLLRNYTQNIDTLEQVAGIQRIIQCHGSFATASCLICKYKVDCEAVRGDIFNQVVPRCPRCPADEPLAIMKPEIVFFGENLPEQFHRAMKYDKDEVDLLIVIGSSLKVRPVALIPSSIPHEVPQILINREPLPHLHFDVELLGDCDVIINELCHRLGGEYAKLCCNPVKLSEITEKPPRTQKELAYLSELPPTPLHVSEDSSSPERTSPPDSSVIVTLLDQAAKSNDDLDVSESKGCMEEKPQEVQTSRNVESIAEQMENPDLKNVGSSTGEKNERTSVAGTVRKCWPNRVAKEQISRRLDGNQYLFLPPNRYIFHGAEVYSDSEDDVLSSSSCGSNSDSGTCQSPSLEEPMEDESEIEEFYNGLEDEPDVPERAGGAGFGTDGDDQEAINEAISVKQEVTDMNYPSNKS
As to the kind of experiment: Mass spectrometry based SIRT1 deacetylation (activation) assay. The format is biochemical. The following applies: 0.5 μM peptide substrate, 120 μM βNAD+, 10 nM SIRT1, 25 min at 25° C.; for Emax: 25 min, read-out: % Fold Act. (percent maximum fold activation).

On to `CN(C)CCNc1cc(C(=O)Nc2ccccc2-c2ccco2)nc(-c2ccccc2)n1` [Compound 16], for which the EC1.5 result is “B (EC1.5>1 and ≦10 uM)”; the Emax was at least 300%.

As for `CCN(CCN(C)C)c1cc(C(=O)Nc2ccccc2-c2ncc(C(C)(C)C)o2)nc(-c2ccccc2)c1` [Compound 43], the EC1.5 entry is reported as “A (EC1.5≦1 uM)” and the Emax was at least 300%.

Consider `CN(C)CCNC(=O)c1ccccc1NC(=O)c1cc(NCCN(C)C)nc(-c2ccccc2)n1` [Compound 121, 6-(2-(dimethylamino)ethylamino)-N-(2-(2-(dimethylamino)ethylcarbamoyl)phenyl)-2-phenylpyrimidine-4-carboxamide], for which the EC1.5 entry was “B (EC1.5>1 and ≦10 uM)”; the Emax is 150 to 300%.

`CC(O)c1ccccc1NC(=O)c1cc(NCCN(C)C)nc(-c2ccccc2)n1` (centres unmarked) [Compound 133]: the EC1.5 result is on record as “C (EC1.5>10 uM)” and the Emax is 150 to 300%.

Turning to `CN(C)CCNc1cc(C(=O)Nc2ccccc2C(=O)Nc2cc(Cl)ccc2Cl)nc(-c2ccccc2)n1` [Compound 161, N-(2-(2,5-dichlorophenylcarbamoyl)phenyl)-6-(2-(dimethylamino)ethylamino)-2-phenylpyrimidine-4-carboxamide], the EC1.5 result is “B (EC1.5>1 and ≦10 uM)”; the Emax was in the range of 150 to 300%.

With `CN(C)CCNc1cc(C(=O)Nc2ccccc2C(=O)NCC[S+](C)[O-])nc(-c2ccccc2)n1` (centres unmarked) [Compound 152, 6-(2-(dimethylamino)ethylamino)-N-(2-(2-(methylsulfinyl)ethylcarbamoyl)phenyl)-2-phenylpyrimidine-4-carboxamide], the EC1.5 result is “B (EC1.5>1 and ≦10 uM)”; the Emax fell in the range of 150 to 300%.

Turning to `CCN(CCN(C)C)c1cc(C(=O)Nc2ccccc2-c2nnc(-c3ccccc3)s2)nc(-c2ccccc2)n1` [Compound 36], the EC1.5 entry was “A (EC1.5≦1 uM)” and the Emax is 150 to 300%.

As for `CN(C)CCNc1cc(C(=O)Nc2ccccc2C(=O)Nc2c(Cl)cccc2Cl)nc(-c2ccccc2)n1` [Compound 162, N-(2-(2,6-dichlorophenylcarbamoyl)phenyl)-6-(2-(dimethylamino)ethylamino)-2-phenylpyrimidine-4-carboxamide], the EC1.5 result was “A (EC1.5≦1 uM)” and the Emax is at least 300%.

For `CN(C)CCNc1cc(C(=O)Nc2ccccc2-c2ncc(-c3ccccc3)o2)nc(-c2ccccc2)n1` [Compound 38], the EC1.5 entry is given as “A (EC1.5≦1 uM)” and the Emax lay in the range of 150 to 300%.

Regarding `CCN(CCN(C)C)c1cc(C(=O)Nc2ccccc2-c2nnc(-c3ccccn3)s2)nc(-c2ccccc2)n1` [Compound 74], the EC1.5 result is listed as “A (EC1.5≦1 uM)” and the Emax is at least 300%.

Take `CN(C)CCNc1cc(C(=O)Nc2ccccc2-c2ccncc2)nc(-c2ccccc2)n1` [Compound 10]: the EC1.5 result is “B (EC1.5>1 and ≦10 uM)”; the Emax fell in the range of 150 to 300%.

For the compound `CCCCc1nnc(-c2ccccc2NC(=O)c2cc(N(CC)CCN(C)C)nc(-c3ccccc3)n2)s1` [Compound 62], the EC1.5 entry is reported as “A (EC1.5≦1 uM)” and the Emax lay in the range of 150 to 300%.

As to `CN1CCN(c2cc(C(=O)Nc3ccccc3-c3nncs3)nc(-c3ccccc3)n2)CC1=O` [Compound 112], the EC1.5 result is given as “A (EC1.5≦1 uM)” and the Emax was at least 300%.

Take `CN(C)CCNc1cc(C(=O)Nc2ccccc2C#N)nc(-c2ccccc2)n1` [Compound 4]: the EC1.5 entry is “B (EC1.5>1 and ≦10 uM)”; the Emax is 150 to 300%.

Take `CN(C)CCNc1cc(C(=O)Nc2ccccc2C(=O)Nc2ccccc2)nc(-c2ccccc2)n1` [Compound 128, 6-(2-(dimethylamino)ethylamino)-2-phenyl-N-(2-(phenylcarbamoyl)phenyl)pyrimidine-4-carboxamide]: the EC1.5 result was “B (EC1.5>1 and ≦10 uM)”; the Emax fell in the range of 150 to 300%.

In the case of `CCCCc1nnc(-c2ccccc2NC(=O)c2cc(NCCN(C)C)nc(-c3ccccc3)n2)s1` [Compound 61], the EC1.5 result is “B (EC1.5>1 and ≦10 uM)”; the Emax is under 150%.

In the case of `Cc1nnc(-c2ccccc2NC(=O)c2cc(NCCN(C)C)nc(-c3ccccc3)n2)s1` [Compound 21], the EC1.5 entry was “A (EC1.5≦1 uM)” and the Emax fell in the range of 150 to 300%.

With `CN(C)CCNc1cc(C(=O)Nc2ccccc2-c2nnc(N3CCOCC3)s2)nc(-c2ccccc2)n1` [Compound 101], the EC1.5 result is on record as “A (EC1.5≦1 uM)” and the Emax was at least 300%.

In the case of `CN(C)CCN(C)c1cc(C(=O)Nc2ccccc2-c2nnc(C3CCC3)s2)nc(-c2ccccc2)n1` [Compound 45], the EC1.5 entry is reported as “A (EC1.5≦1 uM)” and the Emax lay in the range of 150 to 300%.

Take `CCN(CCN(C)C)c1cc(C(=O)Nc2ccccc2-c2nnc(C(=O)NC)s2)nc(-c2ccccc2)n1` [Compound 86]: the EC1.5 entry is on record as “A (EC1.5≦1 uM)” and the Emax is 150 to 300%.

`CN(C)CCNc1cc(C(=O)Nc2ccccc2C(=O)NCCC(=O)O)nc(-c2ccccc2)n1` [Compound 130, 3-(2-(6-(2-(dimethylamino)ethylamino)-2-phenylpyrimidine-4-carboxamido)benzamido)propanoic acid]: the EC1.5 entry is “B (EC1.5>1 and ≦10 uM)”; the Emax fell in the range of 150 to 300%.

In the case of `CN(C)CCNc1cc(C(=O)Nc2ccccc2-c2ncc(C(C)(C)C)s2)nc(-c2ccccc2)n1` [Compound 37], the EC1.5 entry is “B (EC1.5>1 and ≦10 uM)”; the Emax lay within 150 to 300%.

For `Cc1cnc(-c2ccccc2NC(=O)c2cc(NCCN(C)C)nc(-c3ccccc3)n2)o1` [Compound 23], the EC1.5 entry was “B (EC1.5>1 and ≦10 uM)”; the Emax was at least 300%.

`O=C(Nc1ccccc1-c1ncc(-c2ccccc2)s1)c1cc(N2CCNCC2)nc(-c2ccccc2)n1` [Compound 18]: the EC1.5 result is reported as “A (EC1.5≦1 uM)” and the Emax is 150 to 300%.

On to `CN(C)CCNC(=O)c1nnc(-c2ccccc2NC(=O)c2cc(NCCN(C)C)nc(-c3ccccc3)n2)s1` [Compound 58], for which the EC1.5 result is recorded as “A (EC1.5≦1 uM)” and the Emax is at least 300%.

Consider `CCN(CCN(C)C)c1cc(C(=O)Nc2ccccc2C(=O)NC2CCN(C(=O)OC(C)(C)C)C2)nc(-c2ccccc2)n1` (centres unmarked) [Compound 173, tert-butyl 3-(2-(6-((2-(dimethylamino)ethyl)(ethyl)amino)-2-phenylpyrimidine-4-carboxamido)benzamido)pyrrolidine-1-carboxylate], for which the EC1.5 entry is “B (EC1.5>1 and ≦10 uM)”; the Emax is at least 300%.

`O=C1CN(c2cc(C(=O)Nc3ccccc3-c3nnc(N4CCN5CCC[C@H]5C4)s3)nc(-c3ccccc3)n2)CCN1` [Compound 118]: the EC1.5 entry is “A (EC1.5≦1 uM)” and the Emax was 150 to 300%.

With `O=C(Nc1ccccc1-c1nnc(N2CCOCC2)s1)c1cc(NC(CO)CO)nc(-c2ccccc2)n1` [Compound 102], the EC1.5 entry was “A (EC1.5≦1 uM)” and the Emax was at least 300%.

As for `CCN(CCN(C)C)c1cc(C(=O)Nc2ccccc2Br)nc(-c2ccccc2)n1` [Compound 159], the EC1.5 result was “B (EC1.5>1 and ≦10 uM)”; the Emax is 150 to 300%.

Regarding `CCN(CCN(C)C)c1cc(C(=O)Nc2ccccc2C(=O)NC2CCNCC2)nc(-c2ccccc2)n1` [Compound 167, 6-((2-(dimethylamino)ethyl)(ethyl)amino)-2-phenyl-N-(2-(piperidin-4-ylcarbamoyl)phenyl)pyrimidine-4-carboxamide], the EC1.5 entry is on record as “A (EC1.5≦1 uM)” and the Emax was at least 300%.

As to `CN1CCN(c2cc(C(=O)Nc3ccccc3-c3nnc(C(=O)N4CCOCC4)s3)nc(-c3ccccc3)n2)CC1=O` [Compound 88], the EC1.5 result was “A (EC1.5≦1 uM)” and the Emax is at least 300%.

`CN(C)CCNc1cc(C(=O)Nc2ccccc2-c2ncc(-c3ccccc3)o2)nc(-c2ccccc2)c1` [Compound 30]: the EC1.5 entry is recorded as “A (EC1.5≦1 uM)” and the Emax was at least 300%.

With `CN(C)CCNc1cc(C(=O)Nc2ccccc2Br)nc(-c2ccccc2)n1` [Compound 136], the EC1.5 result was “B (EC1.5>1 and ≦10 uM)”; the Emax was in the range of 150 to 300%.

With `O=C(Nc1ccccc1-c1ncc(-c2ccccc2)s1)c1cc(NCCN2CCCCC2)nc(-c2ccccc2)n1` [Compound 17], the EC1.5 entry is given as “A (EC1.5≦1 uM)” and the Emax was 150 to 300%.

In the case of `CN(C)CCNc1cc(C(=O)Nc2ccccc2-c2ncc(-c3ccccc3)s2)nc(-c2ccccc2)n1` [Compound 13], the EC1.5 entry is given as “A (EC1.5≦1 uM)” and the Emax is 150 to 300%.

Consider `CCN(CCN(C)C)c1cc(C(=O)Nc2ccccc2-c2cnc(-c3ccccc3)[nH]2)nc(-c2ccccc2)n1` [Compound 68], for which the EC1.5 entry is listed as “A (EC1.5≦1 uM)” and the Emax was at least 300%.

With `CCN(CCN(C)C)c1cc(C(=O)Nc2ccccc2-c2nnc([S+](C)[O-])s2)nc(-c2ccccc2)n1` (centres unmarked) [Compound 116], the EC1.5 entry is on record as “A (EC1.5≦1 uM)” and the Emax was at least 300%.

Values taken from patent US20110039847A1, “AMIDE DERIVATIVES AS SIRTUIN MODULATORS” (Sirtris Pharmaceuticals, Inc, priority 2007, published 2011).
